The NIST ThermoML archive (doi:10.1016/j.jct.2013.07.003)

Key:
[1] = refractive index (Na D-line) (dimensionless); xn = mol fraction of the nth substance listed; settings: 101 kPa, Liquid, Standard Abbe refractometry
[2] = relative permittivity at various frequencies (dimensionless); xn = mol fraction of the nth substance listed; settings: 101 kPa, Liquid, Frequency=0.1 MHz, Coaxial cylinder capacitor

CC(O)CCO (stereo not given) [1,3-butanediol] + C1COCCO1
Settings	refractive index, 298.2 K	refractive index, 303.2 K	refractive index, 308.2 K	refractive index, 313.2 K	refractive index, 318.2 K	relative permittivity, 298.2 K	relative permittivity, 303.2 K	relative permittivity, 308.2 K	relative permittivity, 313.2 K	relative permittivity, 318.2 K
[1], x1 = 0.103	1.4217	1.4195	1.4165	1.414	1.4112	–	–	–	–	–
[1], x1 = 0.204	1.4235	1.4213	1.4183	1.4161	1.4136	–	–	–	–	–
[1], x1 = 0.301	1.425	1.423	1.4202	1.418	1.4155	–	–	–	–	–
[1], x1 = 0.401	1.4268	1.425	1.4222	1.4202	1.4177	–	–	–	–	–
[1], x1 = 0.451	1.4279	1.4258	1.4233	1.4213	1.419	–	–	–	–	–
[1], x1 = 0.5	1.4287	1.4267	1.4243	1.4222	1.42	–	–	–	–	–
[1], x1 = 0.548	1.4296	1.4275	1.4255	1.423	1.4209	–	–	–	–	–
[1], x1 = 0.61	1.431	1.4285	1.4262	1.4242	1.4221	–	–	–	–	–
[1], x1 = 0.699	1.4325	1.4308	1.4285	1.4267	1.4247	–	–	–	–	–
[1], x1 = 0.788	1.4342	1.4326	1.4303	1.4287	1.4269	–	–	–	–	–
[1], x1 = 0.897	1.4363	1.4348	1.4333	1.4314	1.4297	–	–	–	–	–
[1], x1 = 0.951	1.4374	1.4361	1.4347	1.4329	1.4313	–	–	–	–	–
[1], x1 = 1	1.4384	1.4371	1.4356	1.4341	1.4328	–	–	–	–	–
[2], x1 = 0.103	–	–	–	–	–	3.36	3.34	3.32	3.3	3.28
[2], x1 = 0.204	–	–	–	–	–	4.91	4.85	4.79	4.72	4.67
[2], x1 = 0.301	–	–	–	–	–	6.73	6.64	6.54	6.45	6.38
[2], x1 = 0.401	–	–	–	–	–	8.96	8.82	8.66	8.52	8.38
[2], x1 = 0.451	–	–	–	–	–	10.17	10	9.83	9.67	9.5
[2], x1 = 0.5	–	–	–	–	–	11.44	11.23	11.02	10.85	10.61
[2], x1 = 0.548	–	–	–	–	–	12.76	12.5	12.25	12.03	11.77
[2], x1 = 0.61	–	–	–	–	–	14.6	14.3	13.94	13.63	13.3
[2], x1 = 0.699	–	–	–	–	–	17.46	17.03	16.58	16.15	15.73
[2], x1 = 0.788	–	–	–	–	–	20.41	19.88	19.36	18.88	18.38
[2], x1 = 0.897	–	–	–	–	–	24.35	23.72	23.02	22.41	21.79
[2], x1 = 0.951	–	–	–	–	–	26.42	25.72	24.98	24.29	23.61
[2], x1 = 1	–	–	–	–	–	28.52	27.66	26.77	25.98	25.22

CC(O)CCO (stereo not given) [1,3-butanediol] + CCCCCCCCO
Settings	refractive index, 298.2 K	refractive index, 303.2 K	refractive index, 308.2 K	refractive index, 313.2 K	refractive index, 318.2 K	relative permittivity, 298.2 K	relative permittivity, 303.2 K	relative permittivity, 308.2 K	relative permittivity, 313.2 K	relative permittivity, 318.2 K
[1], x1 = 0.105	1.4279	1.4257	1.4233	1.4209	1.4189	–	–	–	–	–
[1], x1 = 0.2	1.4283	1.4261	1.4238	1.4215	1.4195	–	–	–	–	–
[1], x1 = 0.301	1.4288	1.4268	1.4245	1.4223	1.4204	–	–	–	–	–
[1], x1 = 0.401	1.4295	1.4275	1.4253	1.4232	1.4213	–	–	–	–	–
[1], x1 = 0.45	1.43	1.4281	1.4259	1.4239	1.4221	–	–	–	–	–
[1], x1 = 0.501	1.4305	1.4286	1.4265	1.4245	1.4227	–	–	–	–	–
[1], x1 = 0.55	1.4311	1.4292	1.4272	1.4253	1.4236	–	–	–	–	–
[1], x1 = 0.6	1.4316	1.4298	1.4278	1.426	1.4245	–	–	–	–	–
[1], x1 = 0.66	1.4325	1.4307	1.4288	1.427	1.4255	–	–	–	–	–
[1], x1 = 0.7	1.4331	1.4314	1.4295	1.4278	1.4262	–	–	–	–	–
[1], x1 = 0.801	1.4347	1.4331	1.4313	1.4298	1.4283	–	–	–	–	–
[1], x1 = 0.9	1.4364	1.4349	1.4332	1.4318	1.4304	–	–	–	–	–
[1], x1 = 0.95	1.4373	1.4359	1.4343	1.4329	1.4315	–	–	–	–	–
[1], x1 = 1	1.4384	1.4371	1.4356	1.4341	1.4328	–	–	–	–	–
[2], x1 = 0.105	–	–	–	–	–	10.43	9.99	9.56	9.1	8.74
[2], x1 = 0.2	–	–	–	–	–	11.24	10.8	10.32	9.91	9.5
[2], x1 = 0.301	–	–	–	–	–	12.31	11.86	11.36	10.95	10.54
[2], x1 = 0.401	–	–	–	–	–	13.6	13.15	12.62	12.19	11.76
[2], x1 = 0.45	–	–	–	–	–	14.39	13.92	13.39	12.94	12.49
[2], x1 = 0.501	–	–	–	–	–	15.23	14.73	14.21	13.75	13.27
[2], x1 = 0.55	–	–	–	–	–	16.1	15.6	15.04	14.53	14.06
[2], x1 = 0.6	–	–	–	–	–	17.05	16.52	15.93	15.42	14.92
[2], x1 = 0.66	–	–	–	–	–	18.34	17.77	17.13	16.57	16.07
[2], x1 = 0.7	–	–	–	–	–	19.31	18.77	18.02	17.46	16.91
[2], x1 = 0.801	–	–	–	–	–	21.99	21.34	20.58	20.02	19.37
[2], x1 = 0.9	–	–	–	–	–	25.05	24.33	23.43	22.79	22.1
[2], x1 = 0.95	–	–	–	–	–	26.73	25.9	25.07	24.31	23.62
[2], x1 = 1	–	–	–	–	–	28.52	27.66	26.77	25.98	25.22
